Patent US9113629B2, “4-amino-6-(4-substituted-phenyl)-picolinates and 6-amino-2-(4-substituted-phenyl)-pyrimidine-4-carboxylates and their use as herbicides” (DOW AGROSCIENCES LLC, priority 2013, dated 2015)

tested on: LAMSS; experiment: Post-emergent Test III, herbicidal activity in wheat and barley; type: in vivo; conditions: Table 8; dose for 50 percent growth reduction, probit analysis; 21 d
Method in brief: (§1)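 GR20, GR50, GR80 and GR90 come from probit analysis of visual injury scores (0 = none, 100 = complete kill) taken 21 d after treatment. Foliar application was by track sprayer delivering 187 L/ha at five rates, from high down to 1/16×, onto greenhouse plants at the 2–3 leaf stage, with solvent-blank controls.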

**Q.** Which “GR50 LAMSS” value does the source give for `Nc1cc(-c2ccc(Br)c(F)c2)nc(C(=O)O)c1Cl` [Compound 110, 4-Amino-6-(4-bromo-3-fluorophenyl)-3-chloropicolinic acid] here?
**A.** The value was 1 g ai/ha.

**Q.** How did the “GR50 LAMSS” value turn out when `COc1c(N)nc(-c2ccc(Br)c(F)c2)nc1C(=O)O` [Compound 113, 6-Amino-2-(4-bromo-3-fluorophenyl)-5-methoxypyrimidine-4-carboxylic acid] was run?
**A.** Its value is 1 g ai/ha.

same assay, conditions: Table 8; dose for 80 percent growth reduction, probit analysis; 21 d

**Q.** With `Nc1cc(-c2ccc(Br)c(F)c2)nc(C(=O)O)c1Cl` [Compound 110, 4-Amino-6-(4-bromo-3-fluorophenyl)-3-chloropicolinic acid] as the compound, how does the “GR80 LAMSS” value read?
**A.** The value was 1 g ai/ha.

**Q.** For `COc1c(N)nc(-c2ccc(Br)c(F)c2)nc1C(=O)O` [Compound 113, 6-Amino-2-(4-bromo-3-fluorophenyl)-5-methoxypyrimidine-4-carboxylic acid], which “GR80 LAMSS” value is on record?
**A.** The value was 4 g ai/ha.

same assay, conditions: post-emergence, 504 h; Table 8; 35 g ai/ha; post-emergent; 21 d; read-out: Visual Growth Reduction (%) 21 Days After Application LAMSS

**Q.** For `Nc1cc(-c2ccc(Br)c(F)c2)nc(C(=O)O)c1Cl` [Compound 110, 4-Amino-6-(4-bromo-3-fluorophenyl)-3-chloropicolinic acid], which pest or weed control at 35 g/ha is on record?
**A.** The pest or weed control at 35 g/ha was 95 to 100%.

**Q.** How did the pest or weed control at 35 g/ha turn out when `COc1c(N)nc(-c2ccc(Br)c(F)c2)nc1C(=O)O` [Compound 113, 6-Amino-2-(4-bromo-3-fluorophenyl)-5-methoxypyrimidine-4-carboxylic acid] was run?
**A.** Its pest or weed control at 35 g/ha is 95 to 100%.

same assay, conditions: post-emergence, 504 h; Table 8; 70 g ai/ha; post-emergent; 21 d; read-out: Visual Growth Reduction (%) 21 Days After Application LAMSS

**Q.** `Nc1cc(-c2ccc(Br)c(F)c2)nc(C(=O)O)c1Cl` [Compound 110, 4-Amino-6-(4-bromo-3-fluorophenyl)-3-chloropicolinic acid] was tested. Which pest or weed control at 70 g/ha did it give?
**A.** Its pest or weed control at 70 g/ha is 95 to 100%.

**Q.** How did the pest or weed control at 70 g/ha turn out when `COc1c(N)nc(-c2ccc(Br)c(F)c2)nc1C(=O)O` [Compound 113, 6-Amino-2-(4-bromo-3-fluorophenyl)-5-methoxypyrimidine-4-carboxylic acid] was run?
**A.** The pest or weed control at 70 g/ha was 95 to 100%.

tested on: PAPRH: common poppy (Papaver rhoeas); experiment: as above; type: in vivo; conditions: Papaver rhoeas, post-emergence, 504 h; Table 8; 35 g ai/ha; post-emergent; 21 d; read-out: Visual Growth Reduction (%) 21 Days After Application PAPRH
Method in brief: as §1

**Q.** With `Nc1cc(-c2ccc(Br)c(F)c2)nc(C(=O)O)c1Cl` [Compound 110, 4-Amino-6-(4-bromo-3-fluorophenyl)-3-chloropicolinic acid] as the compound, how does the pest or weed control at 35 g/ha read?
**A.** Its pest or weed control at 35 g/ha is 95 to 100%.

**Q.** How did the pest or weed control at 35 g/ha turn out when `COc1c(N)nc(-c2ccc(Br)c(F)c2)nc1C(=O)O` [Compound 113, 6-Amino-2-(4-bromo-3-fluorophenyl)-5-methoxypyrimidine-4-carboxylic acid] was run?
**A.** The pest or weed control at 35 g/ha was 95 to 100%.

same assay, conditions: Papaver rhoeas, post-emergence, 504 h; Table 8; 70 g ai/ha; post-emergent; 21 d; read-out: Visual Growth Reduction (%) 21 Days After Application PAPRH

**Q.** `Nc1cc(-c2ccc(Br)c(F)c2)nc(C(=O)O)c1Cl` [Compound 110, 4-Amino-6-(4-bromo-3-fluorophenyl)-3-chloropicolinic acid] was tested. Which pest or weed control at 70 g/ha did it give?
**A.** The pest or weed control at 70 g/ha was 95 to 100%.

**Q.** With `COc1c(N)nc(-c2ccc(Br)c(F)c2)nc1C(=O)O` [Compound 113, 6-Amino-2-(4-bromo-3-fluorophenyl)-5-methoxypyrimidine-4-carboxylic acid] as the compound, how does the pest or weed control at 70 g/ha read?
**A.** The pest or weed control at 70 g/ha was 95 to 100%.

same assay, conditions: Table 8; dose for 50 percent growth reduction, probit analysis; 21 d

**Q.** `Nc1cc(-c2ccc(Br)c(F)c2)nc(C(=O)O)c1Cl` [Compound 110, 4-Amino-6-(4-bromo-3-fluorophenyl)-3-chloropicolinic acid] was tested. Which “GR50 PAPRH” value did it give?
**A.** Its value is 1 g ai/ha.

**Q.** `COc1c(N)nc(-c2ccc(Br)c(F)c2)nc1C(=O)O` [Compound 113, 6-Amino-2-(4-bromo-3-fluorophenyl)-5-methoxypyrimidine-4-carboxylic acid] was tested. Which “GR50 PAPRH” value did it give?
**A.** The value was 1 g ai/ha.

same assay, conditions: Table 8; dose for 80 percent growth reduction, probit analysis; 21 d

**Q.** For `Nc1cc(-c2ccc(Br)c(F)c2)nc(C(=O)O)c1Cl` [Compound 110, 4-Amino-6-(4-bromo-3-fluorophenyl)-3-chloropicolinic acid], which “GR80 PAPRH” value is on record?
**A.** Its value is 1 g ai/ha.

**Q.** Which “GR80 PAPRH” value does the source give for `COc1c(N)nc(-c2ccc(Br)c(F)c2)nc1C(=O)O` [Compound 113, 6-Amino-2-(4-bromo-3-fluorophenyl)-5-methoxypyrimidine-4-carboxylic acid] here?
**A.** The value was 1 g ai/ha.
